Where two headings read alike, the source gives them in different places.
What was measured:
Assay type in all cases: cell-based, human
[1] = tested on: SKVLB (Ovarian; multidrug resistant); test: In vitro cytotoxicity, microculture tetrazolium (MTT) assay, SKVLB; conditions: for VLB/OV3: ratio SKVLB / SKOV3
Outline: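 Multidrug-resistant ovarian SKVLB cells exposed 48 h at 37 °C to 1:3 serial dilutions (100 μM–1.7 nM), then 48 h in fresh medium. MTT reduction read at 570 nm after DMSO extraction; four-parameter logistic fit normalized to 0–100% survival.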

[2] = tested on: HT 29 (Colon adenocarcinoma); test: In vitro cytotoxicity, microculture tetrazolium (MTT) assay, HT 29
Method: (§1) In Vitro Cytotoxicity--Microculture Tetrazolium Assay
(§2) The microculture tetrazolium assay was used to test in vitro cytotoxicity. This assay is described in Plumb, J. A. et al., 1989 Cancer Research 49, 4435-4440, which is herein incorporated by reference. The cytotoxicity of compounds towards tumor cells is measured in vitro using the assay. This assay method is based upon the ability of live, but not dead cells to reduce the yellow water soluble dye 3-(4;5-dimethylthiazol-2-yl)-2,5-diphenyltetrazolium bromide (MTT) to its water insoluble purple formazan product.
(§3) Human Tumor Cell lines, used were:
HT 29 (Colon adenocarcinoma) ATCC catalog #HTB-38.
(§4) The cells were maintained in exponential growth in culture in minimal essential media (MEM) supplemented with non-essential amino acids, and containing 15% (v/v) fetal bovine serum, 5 mM L-glutamine, 1 mM sodium pyruvate, and 0.1 U/ml insulin. All cell lines were grown at 37° C. in an atmosphere of 5% CO2 in air.
(§5) Test compounds: 20 mM in DMSO and diluted to a final concentration of 200 μM in culture medium before use.
(§6) The following is the generic description of the assay method. It should be noted that although the conditions described work well with the cells listed above, the initial plating density and the MTT concentration used should be verified for each new cell line used to test compounds.
(§7) For each assay, doxorubicin is included as an inter-assay standard. This allows us to monitor the behaviour of the assay in general, and in particular, to check that the SKVLB line has maintained its resistant phenotype.
(§8) The plate layout is done in the following manner: The assays are carried out in 96-well (8 well×12 well) microtiter plates. Serial dilutions of the compound are tested along the length of the plate. A 1:3 serial dilution of compound in culture medium covers a concentration range from 100 μM to 1.7 nM. Each concentration of compound is tested in quadruplet, allowing two compounds to be tested per plate. Wells containing no cells (blank) and cells with no test compound (control) are included on each plate.
(§9) Cells are plated out in 100 μl of culture medium in the microtiter plates at a density of around 1,500-4,000 cells per well. The plates are incubated overnight to allow the cells to become adherent after which the test compound is added (100 μl of appropriate dilution per well). The cells are incubated with test compound at 37° C. for 48 h after which the compound is replaced with fresh medium. After a further 48 h incubation at 37° C., 50 μl of MTT solution (2 mg/ml) is added to each well. The plates are incubated in the dark for 4 h at 37° C. after which the medium is removed. The MTT formazan product is extracted from the cells by the addition of 200 μl DMSO followed by 50 μl of Sorensen's buffer. The plates are shaken briefly and the absorbance at 570 nm is read using a Molecular Devices UV max plate reader. Curves are fit to the MTT assay data using a four parameter logistic equation, and the data are normalized to fit a 0% to 100% survival scale.

Lox (Melanoma) = test: In vitro cytotoxicity, microculture tetrazolium (MTT) assay, Lox
Method: as §1, §2, §3
Lox (Melanoma)--Southern Research Institute.
as §4, §5, §6, §7, §8, §9

[3] = tested on: T47D (Ductal carcinoma of breast); test: In vitro cytotoxicity, microculture tetrazolium (MTT) assay, T47D
Method: as §1, §2, §3
T47D (Ductal carcinoma of breast)--ATCC catalog #HTB-133.
as §4, §5, §6, §7, §8, §9

[4] = tested on: SKOV3 (Ovarian adenocarcinoma); test: In vitro cytotoxicity, microculture tetrazolium (MTT) assay, SKOV3
Method: as §1, §2, §3
SKOV3 (Ovarian adenocarcinoma)--provided by Dr. V. Ling,
as §4, §5, §6, §7, §8, §9

[5] = SKVLB, multidrug resistant, read-out: IC50
[6] = Homo sapiens, HT-29, HT29, read-out: IC50

CC(=O)OC1C(C)OC(OC2OC(C(C)=O)CC3=C2C(=O)c2ccccc2C3=O)C(I)C1OC(C)=O (mixture of isomers) [BCH2065, (1'S,1R,1S) and (1'S,1S,3R)-methyl-(1-[2',6'-dideoxy-3',4'-diacetoxy-2'-iodo-L-arabino-hexopyranose]-5,10-dioxo-3,4,5,10-tetrahydronaphtho-[2,3-c]-pyran-3-yl) ketone]
IC50 [1, 5]: 6100 nM | VLB/OV3 [1]: 4 | IC50 ([2]; HT29, read-out: IC50): 3420 nM | IC50 (Lox (Melanoma); read-out: IC50): 1400 nM | IC50 ([3]; read-out: IC50): 2200 nM | IC50 ([4]; SKOV3, read-out: IC50): 1540 nM

COP(=O)(CC(=O)[C@H]1CC2=C(C(=O)c3ccccc3C2=O)[C@H](O[C@H]2C[C@H](NC(=O)C(F)(F)F)[C@H](O)[C@H](C)O2)O1)OC [BCH1690, (1'S,1S,3R)-1-(2',3',6'-trideoxy-3'-trifluoroacetamido-L-lyxohexopyranose)-3-dimethylphosphonoacetyl-5,10-dioxo-3,4,5-10-tetrahydro-1H-naphtho-[2,3-c]-pyran]
IC50 ([1]; Homo sapiens): 13700 nM | VLB/OV3 [1]: 7.70 | IC50 ([2]; Homo sapiens, HT-29): 3010 nM | IC50 (Lox (Melanoma); Homo sapiens): 1620 nM | IC50 ([4]; Homo sapiens, SK-OV-3): 1780 nM

(1'S,1S,3R)-methyl-(6 and 9-hydroxy-1-[2',3',6'-trideoxy-3'-trifluoroacetamido-4'-hydroxy-L-lyxohexopyranose]-5,10-dioxo-3,4,5,10-tetrahydronaphtho-[2,3-c]-pyran-3-yl-ketone [BCH2078]
IC50 [1, 5]: 2240 nM | VLB/OV3 [1]: 5.41 | IC50 ([2]; HT29, read-out: IC50): 269 nM | IC50 ([3]; read-out: IC50): 507 nM | IC50 ([4]; SKOV3, read-out: IC50): 414 nM

CC(=O)C1CC2=C(C(=O)c3ccccc3C2=O)C(O)O1 (stereo not drawn) [BCH1148, Methyl (1-hydroxy-5,10-dioxo-3,4,5,10-tetrahydronaphtho [2,3-C]pyran-3-yl) ketone]
IC50 [2, 6]: > 10000 nM

COC1OC(C(=O)NCCN2CCOCC2)=CC2=C1C(=O)c1ccccc1C2=O (stereo not drawn) [BCH2171, 1-methoxy-3-[2-(N-morpholine)ethylaminocarbonyl]-5,10-dioxo-5,10-dihydro-1H-naphtho-[2,3-c]-pyran]
VLB/OV3 [1]: 2.16 | IC50 ([2]; HT29, read-out: IC50): 219 nM | IC50 ([3]; Homo sapiens, read-out: IC50): 398 nM

COP(=O)(CC(=O)[C@@H]1CC2=C(C(=O)c3ccccc3C2=O)[C@@H](O[C@H]2C[C@H](NC(=O)C(F)(F)F)[C@H](O)[C@H](C)O2)O1)OC [BCH1689, (1'S,1R,3S)-1-(2',3',6'-trideoxy-3'-trifluoroacetamido-L-lyxohexopyranose)-3-dimethylphosphonoacetyl-5,10-dioxo-3,4,5-10-tetrahydro-1H-naphtho-[2,3-c]-pyran]
IC50 ([1]; Homo sapiens): 16500 nM | VLB/OV3 [1]: 5.94 | IC50 ([2]; Homo sapiens, HT-29): 3660 nM | IC50 (Lox (Melanoma); Homo sapiens): 1720 nM | IC50 ([4]; Homo sapiens, SK-OV-3): 2780 nM

COc1cccc2c1C(=O)c1c(O)c3c(c(O)c1C2=O)C[C@@](O)(C(=O)CO)C[C@@H]3O[C@H]1C[C@H](N)[C@H](O)[C@H](C)O1 [Adriamycin, reference compound]
IC50 ([2]; Homo sapiens, HT-29): 90 nM | IC50 (Lox (Melanoma); Homo sapiens): 34 nM | IC50 ([3]; Homo sapiens): 70 nM | IC50 ([4]; Homo sapiens, SK-OV-3): 12 nM

COC1OC(C(=O)NCCCN2CCCC2=O)=CC2=C1C(=O)c1ccccc1C2=O (stereo not drawn) [BCH2166, 1-methoxy-3-(3-N-pyrrolidinomylpropylaminocarbonyl)-5,10-dioxo-5,10-dihydro-1H-naphtho-[2,3-c]-pyran]
IC50 ([1]; Homo sapiens, SKVLB, multidrug resistant, read-out: IC50): 495 to 1200 nM | VLB/OV3 [1]: 2.73 | IC50 [2, 6]: 443 to 1200 nM | IC50 ([3]; Homo sapiens, read-out: IC50): 237 nM | IC50 ([4]; Homo sapiens, SK-OV-3, SKOV3, read-out: IC50): 140 to 181 nM

C=C(C)[C@H]1CC2=C(C(=O)c3ccccc3C2=O)[C@H](OC)O1 (relative stereo) [BCH2148, (trans)-5,10-dioxo-3-isopropenyl-1-methoxy-3,4,5,10-tetrahydro-1H-naphtho-[2,3-c]-pyran]
VLB/OV3 [1]: 0.79 | IC50 (Lox (Melanoma); Homo sapiens): 1550 nM

CC[C@H]1CC2=C(C(=O)c3ccccc3C2=O)[C@H](NC(C)=O)O1 (relative stereo) [BCH2027, Trans-5,10-dioxo-1-acetamido-3-ethyl-3,4,5,10-tetrahydro-1H-naphtho-[2,3-c]-pyran]
VLB/OV3 [1]: 4.02 | IC50 (Lox (Melanoma); Homo sapiens): 3040 nM | IC50 ([3]; Homo sapiens): 23300 nM

CC(=O)C1CC2=C(C(=O)c3ccccc3C2=O)C(OCC2CCN(C(=O)OC(C)(C)C)CC2)O1.Cl (racemic) [BCH2068, Methyl-(1-O-[N-BOC-4-piperidinemethanol]-5,10-dioxo-3,4,5,10-tetrahydronaphthaleno-[2,3-c]pyran-3-yl) ketone, racemic, hydrochloride]
IC50 [1, 5]: 1200 nM | VLB/OV3 [1]: 1 | IC50 ([2]; HT29, read-out: IC50): 130 nM | IC50 (Lox (Melanoma); read-out: IC50): 1300 nM | IC50 ([3]; read-out: IC50): 422 nM

CC(=O)C1CC2=C(C(=O)c3ccccc3C2=O)C(OC2CC(NC(=O)C(F)(F)F)C(O)C(C)O2)O1 (stereo not drawn) [BCH2145]
IC50 [1, 5]: 13400 nM | VLB/OV3 [1]: 1.64 | IC50 ([2]; HT29, read-out: IC50): 2480 nM | IC50 (Lox (Melanoma); read-out: IC50): 830 nM | IC50 ([4]; SKOV3, read-out: IC50): 8190 nM

CC(C)C(=O)[C@@H]1CC2=C(C(=O)c3ccccc3C2=O)[C@@H](O[C@H]2C[C@H](NC(=O)C(F)(F)F)[C@H](O)[C@H](C)O2)O1 [BCH2112, (1'S,1R,3S)-isopropyl-[1-(2',3',6'-trideoxy-3'-trifluoroacetamido-L-lyxohexopyranose)-5,10-dioxo-3,4,5,10-tetrahydro-1H-naphtho-[2,3-c]-pyranyl]-ketone]
VLB/OV3 [1]: 15.96-17

CC(=O)O[C@@H]1[C@H](C)O[C@@H](OC2OC(C(C)=O)CC3=C2C(=O)c2ccccc2C3=O)C[C@@H]1OC(C)=O (mixture of isomers) [BCH2118, (1'S,1S,3R) and (1'S,1R,3S)-methyl-(1-[dideoxy-2',6'-diacetoxy-3',4'-L-lyxohexopyranose]-5,10-dioxo-3,4,5,10-tetrahydronaphtho-[2,3-c]-pyran-3-yl) ketone]
IC50 [1, 5]: 790 nM | VLB/OV3 [1]: 6.68 | IC50 ([2]; HT29, read-out: IC50): 203 nM | IC50 ([3]; read-out: IC50): 244 nM | IC50 ([4]; SKOV3, read-out: IC50): 120 nM

COC(=O)[C@]1(C)CC2=C(C(=O)c3ccccc3C2=O)[C@H](O[C@H]2C[C@H](NC(=O)C(F)(F)F)[C@H](O)[C@H](C)O2)O1 [BCH2081, (1'S,1S,3S)-1-(3'-trifluoroacetamido-2',3',6'-trideoxylyxohexopyranose)-3-methoxycarbonyl-3-methyl-5,10-dioxo-4,5,10-trihydro-1H-naphtho-[2,3-c]-pyran]
VLB/OV3 [1]: 15

CC(=O)[C@H]1CC2=C(C(=O)c3ccccc3C2=O)[C@H](O[C@@H]2O[C@@H](C)[C@@H](O)[C@@H](NC(=O)C(F)(F)F)C2I)O1 (stereo partly drawn) [BCH2022, (1'S,1S,3R)-methyl-(1-[2',3',6'-trideoxy-2'-iodo-3'-trifluoroacetamido-4'-hydroxy-L-lyxohexopyranose]-5,10-dioxo-3,4,5,10-tetrahydronaphtho-[2,3-c]-pyran-3-yl) ketone]
VLB/OV3 [1]: 4.23

COC[C@@H]1CC2=C(C(=O)c3ccccc3C2=O)[C@@H](O[C@H]2C[C@H](NC(=O)C(F)(F)F)[C@H](O)[C@H](C)O2)O1 [BCH1691, (1'S,1R,3S)-5,10-dioxo-3-methoxymethyl-1-(2',3',6'-trideoxy-3'-trifluoroacetamido-L-lyxohexopyranose)-3,4,5,10-tetrahydro-1H-naphtho-[2,3-c]-pyran]
VLB/OV3 [1]: 2.10

COC(=O)C1=CC2=C(C(=O)c3ccccc3C2=O)C(OC)O1 (stereo not drawn) [BCH2160, 1-methoxy-3-methoxy carbonyl-5,10-dioxo-5,10-dihydro-1H-naphtho-[2,3-c]-pyran]
VLB/OV3 [1]: 1.85

COC1OC(C(=O)NCCN2CCCC2)=CC2=C1C(=O)c1ccccc1C2=O.Cl (stereo not drawn) [BCH2839, 1-methoxy-3-[2-(N-pyrrolidinyl)ethylaminocarbonyl]-5,10-dioxo-5,10-dihydro-1H-naphtho-[2,3-c]-pyran hydrochloride salt]
VLB/OV3 [1]: 6.14-9.98
